Measured values taken from patent EP0180850A2, “Antimycotic azolyl-methyl-cyclopropyl-carbinol derivatives” (BAYER AG, priority 1984, dated 1986).

How the values were obtained:
[1] = system: Candida-Zellen; experiment: Antimycotic in-vivo activity (oral) in mouse candidosis; parameters: species or system Mäuse vom Typ SPF-CF1; conditions: mice infected i.v. with 1-2 x 10^6 Candida cells; oral 10 to 100 mg/kg one hour before and seven hours after infection; survival on day 6 p.i.
Procedure: Versuchsbeschreibung: • Mäuse vom Typ SPF-CF1 wurden intravenös mit-1-2 x 10^6 logarithmisch wachsenden Candida-Zellen, die in physiologischer Kochsalzlösung suspendiert werden, infiziert. Eine Stunde vor und sieben Stunden nach der Infektion werden die Tiere mit jeweils 10 bis 100 mg/kg Körpergewicht der Präparate oral behandelt.
Unbehandelte Tiere starben am 3. bis 6. Tag post infektionem. Die Überlebensrate am 6. Tag post infektionem betrug bei unbehandelten Kontrolltieren etwa 5 %.

[2] = system: Dermatophyten, Schimmelpilze, Hefen; experiment: Antimycotic in-vitro activity, serial dilution test, overall comparison with prior-art compounds; assay type: cell-based; conditions: compared in words with known compounds (A), (B) and (C)
Procedure: Versuchsbeschreibung: • Die in-vitro-Prüfungen wurden im Reihenverdünnungstest mit Keiminokula von durchschnittlich 5 x 10^3 bis 10^4 Keimen/ml Substrat durchgeführt. Als Nährmedium dienten • a) für Dermatophyten und Schimmelpilze: Sabourand's milieu d'epreuve • b) für Hefen: • Fleischextrakt-Traubenzucker-Bouillon.
Die Bebrütungstemperatur betrug 28 bis 37°C, die Bebrütungsdauer lag bei 24 bis 96 Stunden bei Hefen und 96 Stunden bei Dermatophyten und Schimmelpilzen.

Structure (SMILES) | Wirkung [1] | antimykotische Wirkung [2]
CCS(=O)(=O)C1(C(O)(Cn2cncn2)c2ccc(Cl)cc2)CC1 (stereo not shown) [I-4] | +++ (= Wirkung = 60 % Überlebende am 6. Tag p.i.) | bessere antimykotische Wirkung
OC(Cn1cncn1)(c1ccc(Cl)cc1)C1(SCc2ccc(Cl)cc2)CC1 (stereo not shown) [I-13] | +++++ (= sehr gute Wirkung = 90 % Überlebende am 6. Tag p.i.) | –
OC(Cn1cncn1)(c1ccc(Cl)cc1)C1(Sc2ccc(Cl)cc2)CC1 (stereo not shown) [I-11] | – | bessere antimykotische Wirkung
CCCCS(=O)(=O)C1(C(O)(Cn2cncn2)c2ccc(Cl)cc2)CC1 (stereo not shown) [I-7] | +++++ (= sehr gute Wirkung = 90 % Überlebende am 6. Tag p.i.) | bessere antimykotische Wirkung
CCSC1(C(O)(Cn2cncn2)c2ccc(Cl)cc2)CC1 (stereo not shown) [I-1, 1-(4-Chlorphenyl)-1-[1-(ethylthio)-1-cyclopropyl]-2-(1,2,4-triazol-1-yl)-1-ethanol] | +++++ (= sehr gute Wirkung = 90 % Überlebende am 6. Tag p.i.) | bessere antimykotische Wirkung
OC(Cn1cncn1)(c1ccc(Cl)cc1)C1(Oc2ccccc2)CC1 (stereo not shown) [I-5] | +++++ (= sehr gute Wirkung = 90 % Überlebende am 6. Tag p.i.) | bessere antimykotische Wirkung
OC(Cn1cncn1)(c1ccccc1)C1(Oc2ccc(Cl)cc2)CC1 (stereo not shown) [I-2] | +++++ (= sehr gute Wirkung = 90 % Überlebende am 6. Tag p.i.) | bessere antimykotische Wirkung
CC[S+]([O-])C1(C(O)(Cn2cncn2)c2ccc(Cl)cc2)CC1 (stereo not shown) [I-3, 1-(4-Chlorphenyl)-1-[1-(ethylsulfinyl)-1-cyclopropyl]-2-(1,2,4-triazol-1-yl)-1-ethanol] | +++++ (= sehr gute Wirkung = 90 % Überlebende am 6. Tag p.i.) | bessere antimykotische Wirkung
CCCCSC1(C(O)(Cn2cncn2)c2ccc(Cl)cc2)CC1 (stereo not shown) [I-6] | ++++ (= gute Wirkung = 80 % Überlebende am 6. Tag p.i.) | bessere antimykotische Wirkung
